Entries after “also recorded” stand apart in the source; their conditions may differ.
Columns and labels:
[1] = test system: pancreatic β-cell; details: by reducing β-cell overload; cited from earlier work
[2] = test system: Glut1; assay: Glut1 expression in photoreceptor (661W) cells; format: cell-based; details: 661W photoreceptors
Protocol: RNA samples from cell culture, whole retina or laser-captured neovessels and layers were treated with DNase I (Qiagen, Chatsworth, Calif.) to remove any contaminating genomic DNA. The DNase-treated RNA was then converted into cDNA using reverse transcriptase (Invitrogen). PCR primers for target genes and the control gene, cyclophilin A, were designed using Primer Bank and NCBI Primer Blast software. Quantitative analysis of gene expression was generated using an ABI Prism 7700 Sequence Detection System with the SYBR Green Master mix kit and gene expression was calculated relative to cyclophilin A using the ΔcT method.
Cone photoreceptor cells (al-Ubaidi, M. R., J Cell Biol 119, 1681-1687 (1992), and Tan, E., et al. Invest Ophthalmol Vis Sci 45, 764-768 (2004)) (661W; from Dr. Al-Ubaidi) were cultured as monolayers at 37° C., 5% CO2 in a humidified atmosphere in DMEM with FBS 10% supplemented with hydrocortisone (20 μg/500 mL, H-2270, Sigma), Progesterone (20 μg/500 mL, P-8783, Sigma), Putrescine (0.016 g/500 mL, P-7505, Sigma) and β-mercaptoethanol (20 μL/500 mL, M-6250, Sigma). […] Photoreceptors were then collected 8 hours post-treatment for Hif1α protein expression (see Western blot); while their medium was collected at 12 hours for Vegfa quantification by ELISA (as per manual, MMV00, R&D Systems). […]

[3] = test system: Vldlr−/− mice; assay: Quantification of RAP-like retinal vascular lesions in Vldlr−/− mice; format: in vivo, mouse; details: Vldlr−/− pups treated from P8 to P15, lesions quantified at P16, versus vehicle control
Source text: (§1) All studies adhered to the NIH guide for the Care and Use of laboratory animals, the Association for Research in Vision and Ophthalmology (ARVO) Statement for the Use of Animals in Ophthalmic and Vision Research and were approved by the Institutional Animal Care and Use Committee at Boston Children's Hospital. Vldlr knockout mice (Vldlr^−/−; Jackson Lab Stock: 002529) were crossed with wild type C57Bl/6 mice to obtain heterozygous breeders for littermate controlled experiments. Vldlr^−/− mice were also crossed with Ffar1 knockout mice (Ffar1^−/−)^1 to ultimately obtain Vldlr^−/−/Ffar1^−/+ heterozygous breeders and double knockout mice (Vldlr^−/−/Ffar1^−/−). Pups weighing less than 5 grams or more than 7 grams at postnatal day (P)16 were excluded (Stahl, A., et al. Am J Pathol 177, 2715-2723 (2010)). Littermate Vldlr^−/− pups were treated from P8 to P15 with WY164363 (50 mg/kg once daily, intraperitoneal; Sigma), GW9508 (14 μM, once daily intraperitoneal; Cayman), TAK-875 (15 mg/kg twice daily, gavage; Selleckchem), medium chain triglyceride oil (MCT, 20 μL once daily gavage; Nestle) or corresponding vehicle and sacrificed at P16 to quantify retinal vascular lesions. Mice pups of both genders were used.
For quantification of outer retina vascular lesions, reminiscent of retinal angiomatous proliferation (RAP) or macular telangiectasia (MacTel), mice were euthanized with a mixture of xylazine and ketamine and eyes were enucleated and fixed in 4% paraformaldehyde for 1 h at room temperature. […] For quantification of retinal lesions 20 images of each whole-mounted retina were obtained at 10× magnification on a Zeiss AxioObserver.Z1 microscope and merged to form one image using AxioVision 4.6.3.0 software. Vascular lesion counts were analyzed using the SWIFT_MACTEL method, an adaptation of the method used to measure neovascularization (SWIFT_NV) (Stahl, A., et al. Angiogenesis 12, 297-301 (2009) in the oxygen induced retinopathy model. […]

[4] = test system: Hif1α; assay: Hif1α protein in photoreceptor (661W) cells (Western blot); format: cell-based; details: 661W photoreceptors, 8 hours post-treatment
Protocol: (§2) Retinal samples were obtained as described above. Retinal lysate (20 μg) from three different animals or endothelial cells lysate (10 μg) were loaded on an SDS-PAGE gel and electroblotted onto a PVDF membrane. After blocking, the membranes were incubated with antibodies against β-Actin (Sigma, A1978), Hif1α (Novus, NB100-134), and Glut1 (Novus, NB300-666 and Abcam, Ab652) overnight (1:1000 each). After washing, membranes were incubated with 1:10,000 horseradish peroxidase-conjugated anti-rabbit or anti-mouse secondary antibodies (Amersham, NA931V and NA934V) for one hour at room temperature. Densitometry was analyzed using ImageJ. Retinal Vegfa concentration was measured by ELISA (as per manual, MMV00, R&D Systems) and normalized by doing a Bradford to measure the total cell protein content of each samples.
Cone photoreceptor cells (al-Ubaidi, M. R., J Cell Biol 119, 1681-1687 (1992), and Tan, E., et al. Invest Ophthalmol Vis Sci 45, 764-768 (2004)) (661W; from Dr. Al-Ubaidi) were cultured as monolayers at 37° C., 5% CO2 in a humidified atmosphere in DMEM with FBS 10% supplemented with hydrocortisone (20 μg/500 mL, H-2270, Sigma), Progesterone (20 μg/500 mL, P-8783, Sigma), Putrescine (0.016 g/500 mL, P-7505, Sigma) and β-mercaptoethanol (20 μL/500 mL, M-6250, Sigma). Equal number of 661W cells (0.3×106) were plated in 6-well dishes and cultured to 80% confluence. […]

[5] = test system: Glut1; assay: Retinal Glut1 expression after in vivo treatment (qRT-PCR / Western blot); set-up: species or system mouse; details: versus control
Source text: as §1, with “Pups weighing less than 5 grams or more than 7 grams at postnatal day (P)16 were excluded (Stahl, A., et al. Am J Pathol 177, 2715-2723 (2010)).” left out, “Mice pups of both genders were used.” left out
Retinal samples were obtained as described above. […] Densitometry was analyzed using ImageJ. Retinal Vegfa concentration was measured by ELISA (as per manual, MMV00, R&D Systems) and normalized by doing a Bradford to measure the total cell protein content of each samples.

[6] = test system: photoreceptors (661W); assay: Glucose uptake of photoreceptor (661W) cells; format: cell-based; details: 661W photoreceptors
Protocol: Whole retinas and photoreceptors (661W) were incubated in assay media (DMEM 5030, 12 mM glucose, 10 mM HEPES) for 6 and 48 hours respectively. Media was collected, spun briefly (13 g) to remove cellular debris, and glucose and lactate levels measured using a Yellow Springs Instrument (YSI) 2950 were compared to control media that was not exposed to tissue or cells. To determine the conversion of glucose to lactate (the glycolytic rate), lactate production was divided by glucose uptake.

[7] = test system: WT and Vldlr−/− mice; assay: Retinal glucose uptake (3H-2-deoxyglucose tracer) in treated pups; format: in vivo, mouse; details: WT and Vldlr−/− retinas; GW9508 14 μM daily i.p. for 5 days (P7-P12)
Protocol: Positron emission tomography (PET) imaging studies were performed on WT, Vldlr^−/−/Ffar1^−/and Ffar1^−/− mice (P16; Focus 120 high-resolution, Siemens), followed by micro CAT imaging (MicroCAT II scanner, Siemens). Fluorine-18 fluorodeoxyglucose FDG) was administered by intraperitoneal injection (i.p.) to obtain nontoxic radioactivity levels (3.7 and 37 MBq; or 0.1 to 1.0 mCi). Actual administered activity was determined using a dose calibrator to measure activity in the syringe before and after the injection. Images were acquired 60 minutes after injection to ensure radiotracer uptake. Mice were fasted for 6 hours prior to imaging, kept in darkness and anesthetized by inhalation of isoflurane (2-4%) through a nose cone for the duration of the procedure. Animals were imaged in a head first, prone position, and placed on a heating pad to maintain appropriate body temperature. Upon completion of imaging, mice were euthanized and retinas were dissected for precise ^18F-FDG retinal activity, quantification by gamma counter, and corrected for decay. […] Retinas were collected and homogenized in a scintillation cocktail (Ecolite+, MP biomedicals) and betacounts measured using the LS6500 Multipurpose Scintillation Counter (Beckman).

[8] = test system: Hif1α; assay: Retinal Hif1α stabilization after in vivo treatment (Western blot); set-up: species or system mouse
Protocol: as §2

[9] = test system: photoreceptors (661W); assay: Oxygen consumption and extracellular acidification rates of photoreceptor (661W) cells (Seahorse XFe96); format: cell-based
Protocol: (§3) All oxygen consumption rates were measured using a Seahorse XFe96 Flux Analyzer®. Whole retinas were isolated and 1 mm punch biopsies were loaded into the 96 well plate. Retinal punches were incubated in assay media (DMEM 5030 media supplemented with 12 mM glucose, 10 mM HEPES and 26 mM NaHCO3) to measure oxygen consumption rates (OCR) and extracellular acidification rates (ECAR). Photoreceptor (661W) cells, were incubated in their assay media (DMEM 5030, 12 mM glucose, 10 mM HEPES) one hour prior to measurements. Fatty acid oxidation rates were determined by treating tissues or cells with Etomoxir (40 μM; Sigma) 40 min prior to analysis and then providing BSA (control) or BSA/Palmitate conjugate (Seahorse). Glucose oxidation rates were measured after injection of 2-deoxyglucose (2-DG, 100 mM; Sigma) or media control during data acquisition. To determine the maximal fatty acid or glucose oxidative capacity, the nonmitochondrial respiration (rate after injection of 2 μM Rotenone and 2 μM Antimycin A) was subtracted from the oxygen consumption rate after injection of 0.5 μM carbonyl cyanide-ptrifluoromethoxyphenylhydrazone (FCCP).

[10] = test system: retinas; assay: Oxygen consumption rate of ex vivo retinas (Seahorse XFe96); format: cell-based, mouse; details: WT retinal explants with palmitate, etomoxir 40 μM
Protocol: as §3

## CCCCc1ccc(NS(=O)(=O)c2ccc(F)cc2)cc1 [DC260126, N-(4-Butylphenyl)-4-fluoro-benzenesulfonamide]
[1]
  pancreatic β-cell dysfunction: protect

## COc1cccc(-c2cc(=O)c3ccccc3o2)c1N [PD98059]
[2]; PD98059, 20 μM, SP600125, Ffar1 siRNA
  effect on FFA1-mediated Glut1 suppression by GW9508: prevented

## Cc1cccc(Nc2cc(Cl)nc(SCC(=O)O)n2)c1C [WY16463]
[3]
  number of RAP-like pathologic vascular lesions: reduced

## O=C(O)CCc1ccc(NCc2cccc(Oc3ccccc3)c2)cc1 [GW9508]
[4]
  Hif1α stabilization: stabilized; also recorded: stabilization
[5]; WT and Vldlr−/− retinas
  Glut1 expression in retina: reduces; also recorded: suppressed
[2]
  Glut1 expression: suppression
[6]
  glucose uptake: decreased
[7]
  retinal glucose uptake (3H-2-DG tracer): suppressed; also recorded: reduction
[8]; Vldlr−/− retinas
  Hif1α stabilization in retina: stabilized
[8]; WT retinas
  Hif1α stabilization in retina: stabilized
[3]
  number of RAP-like pathologic vascular lesions: more than doubled

## Cc1cc(OCCCS(C)(=O)=O)cc(C)c1-c1cccc(COc2ccc3c(c2)OC[C@H]3CC(=O)O)c1 [TAK-875]
[5]; Vldlr−/− retinas only
  Glut1 expression in retina: increased Glut1 suppression
[3]
  number of RAP-like pathologic vascular lesions: significantly increased and more

## CCOC(=O)[C@@]1(CCCCCCOc2ccc(Cl)cc2)CO1 [Etomoxir]
[9]; 661W photoreceptors with palmitate, etomoxir 40 μM
  effect on the increase in respiration (OCR): abrogated
[10]
  mitochondrial respiration (OCR) with FA oxidation inhibitor: abrogated

## CCCCCCCN(CCc1ccc(SC(C)(C)C(=O)O)cc1)C(=O)Nc1ccc(F)cc1F [GW9578]
[9]; 661W photoreceptors, GW9578 100 nM, 48 hours
  extracellular acidification rate (ECAR), reflecting lactate production from glycolysis: without significantly affecting; also recorded: not detectably affected
[9]; 661W photoreceptors, palmitate, GW9578 100 nM, 48 hours
  mitochondrial respiration by FA β-oxidation (OCR): induced; also recorded: further increased

— US11583528B2, “FFA1 (GPR40) as a therapeutic target for neural angiogenesis diseases or disorders” (Children's Medical Center Corporation, priority 2016, dated 2023)
